The values that follow come from patent US12674178B2, “Methods for the evaluation of neutralizing antibodies for adeno-associated virus” (REGENTS OF THE UNIVERSITY OF MINNESOTA, priority 2020, dated 2026).

In one data set the test system is AAV8. In words: AAV8-Luc infection of HEK293 cells, luciferase readout. It counts as cell-based, adeno-associated virus. The note with it: at least one model system, cells pretreated. How it is done:
(§1) HEK293 cells were infected with AAV8-Luciferase (Luc) or AAV2-Luc at an MOI of 5000 in the presence of several pharmacologically active drugs (TNFα+LPS, TNFα+IL-6, dorsomorphin (also known as “Compound C” or “CC”), SP600125, or rosiglitazone). The drugs were added 1 hour before injection with AAV-Luc. 24 hours after AAV-Luc was added, luciferase was detected, as further described in Example 2.
Method: Day 0: • 1. Remove culture medium (DMEM supplemented with 10% heat-inactivated FBS and 1% penicillin/streptomycin) from HEK293 cell culture, gently wash cells twice with 100 μL of PBS. Cells should be at low passage and approximately 80% confluent without being overgrown. Harvest cells by trypsinization and perform a cell count. • 2. Resuspend cells in complete DMEM culture medium at 200,000 cells/mL. Seed cells in 96-well plates with black or white walls and clear bottoms: 20,000 cells/well in 100 μL of complete media. • 3. Incubate cells overnight in C02 incubator at 37° C. Day 1: • 1. […] Each dilution was analyzed at least in triplicate. […] Set up spectrophotometer to read chemiluminescence. If the spectrophotometer is BioTek the read conditions are: 500 ms, gain 125-135, height of plate 3.75 mm. Add 50 μL of Bright Glo substrate to each well, incubate plate 3 min in the dark and then read. For maximal light intensity, samples should be measured within 15 minutes of reagent addition. […]

In another data set the test system is AAV2. In words: AAV2-Luc infection of HEK293 cells, luciferase readout. In kind it is cell-based, adeno-associated virus. The note with it: AAV2, CC pre-treatment, 48 hours, MOI 2000. The method, then:
as §1
Method: Day 0: • 1. Remove culture medium (DMEM supplemented with 10% heat-inactivated FBS and 1% penicillin/streptomycin) from HEK293 cell culture, gently wash cells twice with 100 μL of PBS. Cells should be at low passage and approximately 80% confluent without being overgrown. Harvest cells by trypsinization and perform a cell count. • 2. […] Each dilution was analyzed at least in triplicate. […] Set up spectrophotometer to read chemiluminescence. If the spectrophotometer is BioTek the read conditions are: 500 ms, gain 125-135, height of plate 3.75 mm. Add 50 μL of Bright Glo substrate to each well, incubate plate 3 min in the dark and then read. For maximal light intensity, samples should be measured within 15 minutes of reagent addition.
(§2) The dramatic improvement of AAV8 transduction in vitro in the presence of CC prompted test to determine if similar effect could be achieved for other AAV serotypes. The transduction efficiency of ten common AAV serotypes at MOI 2000 vg/cell was analyzed. […]

The next data set deals with AAV10. In words: AAV10/Luc infection of HEK293 cells, luciferase readout. In kind it is cell-based, adeno-associated virus. The note with it: AAV10, CC pre-treatment, MOI 2000. The method, then: Method: Day 0: • 1. Remove culture medium (DMEM supplemented with 10% heat-inactivated FBS and 1% penicillin/streptomycin) from HEK293 cell culture, gently wash cells twice with 100 μL of PBS. Cells should be at low passage and approximately 80% confluent without being overgrown. Harvest cells by trypsinization and perform a cell count. • 2. Resuspend cells in complete DMEM culture medium at 200,000 cells/mL. Seed cells in 96-well plates with black or white walls and clear bottoms: 20,000 cells/well in 100 μL of complete media. • 3. Incubate cells overnight in C02 incubator at 37° C. Day 1: • 1. Confirm microscopically that cells are 50-80% confluent. • 2. […] Each dilution was analyzed at least in triplicate. […] Set up spectrophotometer to read chemiluminescence. If the spectrophotometer is BioTek the read conditions are: 500 ms, gain 125-135, height of plate 3.75 mm. Add 50 μL of Bright Glo substrate to each well, incubate plate 3 min in the dark and then read. For maximal light intensity, samples should be measured within 15 minutes of reagent addition.
as §2

The next data set concerns HEK293 cells. As to the kind of experiment: Cytotoxicity of the drug to the cells to be infected. In kind it is cell-based.

In the case of `c1cc(-c2cnn3cc(-c4ccc(OCCN5CCCCC5)cc4)cnc23)ccn1` [dorsomorphin], in the data set with AAV8, the “CC pretreatment concentration giving statistically significant increase in activity of AAV/Luc” value was “at least 2.5 μM”. Further, the “luciferase activity, times higher than background” value in the data set with AAV2 is “more than 1000 times”; in the data set on AAV10, 8 times. In addition, in the data set on HEK293 cells (HEK293 infected with AAV2/AAV8), the cytotoxic effects result is listed as “without cytotoxic effects”. Also, the “CC concentration that became toxic to cells” value in the data set on HEK293 cells (at least one model system) was “higher than 20 μM”.
